Measurements as given in patent US20180344798A1, “TOPICALLY ACTIVE PEPTIDES FOR TREATING COSMETIC AND DERMATOLOGICAL CONDITIONS” (priority 2017, published 2018).
“And” between values parts separate entries of the source, which are not always exact repeats. Identical values can stand only once.

Legend:
[1] = test system: plasma inflammatory cytokines; conditions: Ruff, cited from earlier work
[2] = test system: normal human epidermal keratinocytes; conditions: Hu, Paoletti, 2013; cited from earlier work
[3] = route of dosing not described; U.S. Pat. No. 5,798,335; cited from earlier work
[4] = aqueous solutions; U.S. Pat. No. 7,390,788; cited from earlier work
[5] = test system: TLR4-mediated maturation of dendritic cells
Protocol: To determine whether all-D-TTNYT (SEQ ID NO: 1) blocks maturation of dendritic cells human PBMC's were isolated from peripheral blood by Ficoll-Paque centrifugation and then monocytes were isolated by negative selection using immunobeads (Miltenyi). Human monocyte derived immature dendritic cells (iDCs) were then generated by treating monocytes with GM-CSF/IL4 for 5 days.
The iDCs were treated with all-D-TTNYT (SEQ ID NO: 1) at 10^−12 M for 30 min. After 30 min LPS (100 ng/ml) was added to the cells and cells were analyzed after 48 hrs for surface maturation markers using fluorescent labeled antibodies by flow cytometry. […] The surface markers control T cell activation and localization in tissues. DCs, like microglia, are derived from differentiated monocytes and serve as the innate and adaptive sentinel cells of the skin and brain, respectively. Blockade of DC or microglial activation would suppress inflammation.

[6] = topical oil/water lotion 50 μg/ml, 2× per day, 28 days
Protocol: Self-reported “Severity Scores” on a scale of 1-10 (with 10 being most severe) were recorded in a daily symptom report form to record the symptom score and compliance. The change from baseline is plotted for the day 0, 7, 14, 21, 28 and 35 (one week “off” treatment) symptom scores.
Topical administration of all-D-TTNYT (SEQ ID NO: 1) was formulated in an oil/water lotion consisting of deionized water, caprylic/capric triglyceride, polyglyceryl-6-stearate, polyglyceryl-6-behenate, cetearyl alcohol, and glyceryl stearate.

[7] = test system: DC maturation caused by LL37 (IGF-1R)
[8] = test system: rodent spinal cord tissue; conditions: Rat, Padi, 2012; cited from earlier work
response to bradykinin = conditions: amounts up to 50,000 times the standard challenge of bradykinin; cited from earlier work
[9] = Hu, DAPTA administered for 7 weeks
[10] = Hu dendritic cells, peptide 10^-12 M 30 min, then LPS 100 ng/ml, 48 hrs, unpublished

For Dalal-peptide T-amide [DAPTA], the IL-1 change [1, 9] is listed as “decrease”, the IL-6 change [1, 9] is listed as “decrease” and the IL-8 change [1, 9] is listed as “decrease”. The TNFα change [1, 9] was “decrease”, the “anti-inflammatory cytokine IL-10 (M2-type) change” value ([1]; human subjects, DAPTA for 7 weeks) was “increased” and the ICAM1 change [2] was “decrease”. For the same substance, the IL-6 change [2] was “decrease”, the IL-8 change [2] was “decrease” and the IL-23 change [2] was “decrease”. For the same substance, the pSTAT3 change [2] was “decrease”, the “improvement of eczema/dermatitis in dogs” value [3] was “Improvement in two dogs with dermatitis, mild improvement in five cases of erythema, and no improvement in ten cases” and the “aggregation and loss of potency upon storage” value [4] was “high propensity for DAPTA to aggregate and lose potency”.

In the case of all-D-TTNYT, the CD58 change [5, 10] is reported as “decrease”, the CD86 change [5, 10] is reported as “decrease” and the DR change [5, 10] is reported as “decrease”. For the same substance, the ICAM1 change [5, 10] was “decrease”, the “expression of maturation markers CD86, HLA-DR, CD58 and ICAM1” value ([5]; iDCs pre-treated with peptide, then LPS, flow cytometry) was “reduces expression of all the maturation markers” and the “self-reported Severity Scores in dermatocosmetic conditions” value ([6]; five subjects, scale 1-10) was “improved”. The “appearance of rosacea, atopic dermatitis, and psoriasis” value ([6]; subject reports) was “improvements in the appearance of rosacea, atopic dermatitis, and psoriasis”, the “effect on DC maturation of the four markers caused by LL37” value [7] was “no effect” and the IL-1β change [8] was “decrease”. The IL-6 change [8] was “decrease”.

In the case of all-D-TTNYT-NH2, the “Timed Walk, Post” value (after topical lotion 50 μg/ml, 2× per day to feet, 28 days, measured fixed distance) is reported as 24 s, the “Pain Score, Post” value (after topical lotion 50 μg/ml, 2× per day to feet, 28 days, scale 1-10, per subject) is reported as 3 and the “Timed Walk, Pre” value (before treatment (baseline), measured fixed distance) is reported as 48 s. The “Pain Score, Pre” value (before treatment (baseline), self-reported scale 1-10, per subject) was 7 and 6 and the “pain sensitivity on self-reported Severity Scores” value (two subjects with diabetic neuropathy symptoms, topical lotion 50 μg/ml, 2× per day) was “Reduced pain sensitivity”.

For all-D-bradykinin, the “inhibition of the response to bradykinin or bradykinin-like effect” value (response to bradykinin) is listed as “neither any inhibition of the response to bradykinin, or any bradykinin-like effect”.
